The values below come from paper PMC10731459, “A SARS-CoV-2 NSP7 homolog of a Treg epitope suppresses CD4+ and CD8+ T cell memory responses” (Frontiers in Immunology, 2023).

As usually defined, the IC50 is the concentration at which inhibition is half-maximal.

The target in one assay is T1, HLA-DRB1*01:01 (Homo sapiens, UniProt P01903+P01911, A100R/D57E/F55L/F60I/F76Y/I96L/L162R/M171V/P40L/Q125E/R42F/V115G/Y59C).
T1 construct: purchased Benaroya Research Institute, Seattle, Washington
Briefly: HLA binding assay, DRB1*01:01.

The target of a further assay is T2, HLA-DRB1*03:01 (Homo sapiens, UniProt P01903+P01911, A100K/A102G/A103R/A169T/F55Y/I96L/K41T/L162R/M171V/P40S/Q125H/Q178H/Q39Y/R42S/S66N/T106N/T262R/W38E/Y61H).
T2 construct: purchased Benaroya Research Institute, Seattle, Washington
Briefly: HLA binding assay, DRB1*03:01.

The target in a further assay is T3, HLA-DRB1*04:01 (Homo sapiens, UniProt P01903+P01911, A100K/A169T/F76Y/I96L/K127E/L162R/M171V/N62H/P40V/Q125Y/R42H/S133A/S149N/S66Y/V115G/V209L/W38E).
T3 construct: purchased Benaroya Research Institute, Seattle, Washington
Briefly: HLA binding assay, DRB1*04:01.

In the next assay the target is HLA-DRB1*07:01 (Homo sapiens, UniProt P01903+P01911, A100R/A102G/A103Q/D57E/D86V/E43K/F76Y/K127E/L162R/M171V/P40G/Q125H/Q99D/R33Q/R42Y/R54Q/S133A/S66F/T210M/V115G/Y107V/Y59L/Y89S). Briefly: HLA binding assay, DRB1*07:01.
A further assay addresses HLA-DRB1*09:01 (Homo sapiens, UniProt P01903+P01911, A100R/A103E/D57H/D86V/F55Y/F60I/F76Y/I96F/K127E/L162R/M171V/P40D/Q125H/Q99R/R33Q/R42F/S133A/S66N/T210M/V115G/W38K/Y107V/Y59G/Y89S). Briefly: HLA binding assay, DRB1*09:01.
A further assay has as its target HLA-DRB1*11:01 (Homo sapiens, UniProt P01903+P01911, A100R/A169T/A87E/I96F/K41T/L162R/M171V/P40S/Q125H/Q178H/Q39Y/Q99D/R42S/S66Y/T262R/V115G/W38E). Briefly: HLA binding assay, DRB1*11:01.
A further assay concerns the target T4, HLA-DRB1*15:01 (Homo sapiens, UniProt P01903+P01911).
T4 construct: purchased Benaroya Research Institute, Seattle, Washington
Briefly: biochemical. In kind it is binding.

In the next assay the test system is human CD4+ T cells. In kind it is cell-based.

Read-outs that look alike come from different tables or passages of the source. Where no end group is shown, it is not given here.

HLA-DRB1*11:01, sequence (P01903 26-254 limits assumed, other chains not shown): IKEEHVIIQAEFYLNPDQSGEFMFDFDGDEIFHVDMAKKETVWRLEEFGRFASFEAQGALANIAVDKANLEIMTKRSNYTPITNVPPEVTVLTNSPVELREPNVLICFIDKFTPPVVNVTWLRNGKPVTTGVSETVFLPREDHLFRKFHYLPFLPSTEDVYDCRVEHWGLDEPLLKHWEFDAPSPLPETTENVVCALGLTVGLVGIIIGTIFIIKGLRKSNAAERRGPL

Take KSTYRVVSVLTVLHQD-NH2 [Tregitope 289z]: the IC50 at HLA-DRB1*01:01 turned out to be 160 nM; at HLA-DRB1*03:01, 8990 nM; on HLA-DRB1*04:01, 650 nM; on HLA-DRB1*07:01, 200 nM; at HLA-DRB1*09:01, 220 nM; on HLA-DRB1*11:01, 480 nM. Further, the IC50 against HLA-DRB1*15:01 is 2520 nM.

Regarding EKMVSLLSVLLSM [NSP7-289], the half-inhibitory concentration (IC50) on HLA-DRB1*01:01 (read-out: HLA-DRB1 (IC50) *0101) worked out at 270 nM; on HLA-DRB1*03:01 (read-out: HLA-DRB1 (IC50) *0301), 31000 nM; on HLA-DRB1*04:01 (read-out: HLA-DRB1 (IC50) *0401), 28800 nM; at HLA-DRB1*07:01 (read-out: HLA-DRB1 (IC50) *0701), 2680 nM; on HLA-DRB1*09:01 (read-out: HLA-DRB1 (IC50) *0901), 7790 nM; on HLA-DRB1*11:01 (read-out: HLA-DRB1 (IC50) *1101), 3240 nM. Also, the concentration for half-maximal inhibition (IC50) at HLA-DRB1*15:01 (read-out: HLA-DRB1 (IC50) *1501) was 200 nM.

Consider “TT: TT (Astarte Biologics, cat no. 1002), stimulating antigen”, for which the “increase of CD4+ T cell proliferation by TT stimulation” value in the assay with human CD4+ T cells is recorded as “roughly 20 fold”.
